Data on 19 compounds can be found in ChEMBL document CHEMBL4138122, “Azaphenothiazines - promising phenothiazine derivatives. An insight into nomenclature, synthesis, structure elucidation and biological properties” (Eur J Med Chem, 2017).

For data set [1], the system named is Staphylococcus aureus. Description: Antibacterial activity against methicillin-resistant Staphylococcus aureus. It counts as functional.
The species named for data set [2] is Mus musculus. Description: Antioxidant activity in Swiss albino mouse assessed as LPO level per mg tissue. It counts as functional.
Data set [3] is filed under the species Mus musculus. Description: Antioxidant activity in Swiss albino mouse assessed as GSH level per mg tissue. It counts as functional.
Data set [4] in a line: Antioxidant activity assessed as DPPH radical scavenging activity. It counts as functional. To be noted: dose or concentration not given here. (DPPH is a stable violet radical that fades when it is reduced.)
For data set [5], the system named is Trichophyton mentagrophytes. Description: Antimicrobial activity against Trichophyton mentagrophytes assessed as reduction in microbial growth at 100 ppm relative to control. The format is functional.
The test system of the next data set is Aureobasidium pullulans. Description: Antimicrobial activity against Pullularia pullulans assessed as reduction in microbial growth at 100 ppm relative to control. It counts as functional.
In data set [6] the test system is Aspergillus terreus. Description: Antimicrobial activity against Aspergillus terreus assessed as reduction in microbial growth at 100 ppm relative to control. It counts as functional.
The test system of data set [7] is Candida albicans. Description: Antimicrobial activity against Candida albicans assessed as reduction in […] growth at 100 ppm relative to control. It counts as functional.
The subject of data set [8] is Staphylococcus aureus. Description: Antimicrobial activity against Staphylococcus aureus assessed as reduction in bacterial growth at 100 ppm relative to control. It counts as functional.
Another data set concerns Bacillus cereus. Description: Antibacterial activity against Bacillus cereus. The format is functional, organism-based.
Another data set relates to Aspergillus niger. Description: Antifungal activity against Aspergillus niger. It counts as functional.
The subject of the next data set is Escherichia coli. Description: Antibacterial activity against Escherichia coli. It counts as functional. As to conditions: Escherichia coli.
A further data set deals with C32. Description: Cytotoxicity against human C32 cells incubated for 72 hrs by WST1 dye based assay. The format is functional, cell-based. As to conditions: C32, 72 h. (In general: Tetrazolium dyes change colour on reduction, which living cells bring about.)
For data set [9], the system named is MCF7. Description: Cytotoxicity against human MCF7 cells incubated for 72 hrs by WST1 dye based assay. The format is functional, cell-based. As to conditions: MCF7, 72 h.
For another data set, the system named is HFF-1. Description: Cytotoxicity against human HFF1 cells incubated for 72 hrs by WST1 dye based assay. The format is cell-based. As to conditions: HFF-1, 72 h.
The test system of data set [10] is Human immunodeficiency virus. Description: Antiviral activity against HIV infected in human MT4 cells. The format is functional, organism-based. As to conditions: Human immunodeficiency virus 1, MT4.
The subject of data set [11] is HUVEC. Description: Anti-inflammatory activity in human HUVEC cells assessed as reduction in TNFalpha-induced VCAM expression after 4 hrs by ELISA. The format is functional, cell-based. In general terms: An ELISA detects its analyte on a solid surface through an enzyme-linked reagent.
Data set [12] has as its target Vascular cell adhesion protein 1 (Homo sapiens, UniProt P19320). Description: Inhibition of VCAM1 (unknown origin).
Data set [13] deals with Intercellular adhesion molecule 1 (Homo sapiens, UniProt P05362). Description: Inhibition of ICAM1 (unknown origin).
Data set [14] deals with Mus musculus. Description: Anti-inflammatory activity in IL1-induced paw inflammation Balb/c mouse model assessed as inhibition of neutrophil migration at 10 mg/kg, po, pretreated for 30 mins followed by IL1 challenge measured after 2 hrs by spectrophotometric method. It counts as functional.
Data set [15] relates to HUVEC. Description: Anti-inflammatory activity in human HUVEC cells assessed as reduction in TNFalpha-induced E-selectin expression after 4 hrs by ELISA. The format is functional, cell-based.
A further data set has as its system UO-31. Description: Growth inhibition of human UO31 cells at 10 uM. It counts as functional. As to conditions: read-out: GI.
The subject of data set [16] is MCF7. Description: Growth inhibition of human MCF7 cells at 10 uM. The format is functional. To be noted: read-out: GI.
The next data set relates to Salmonella typhimurium. Description: Antibacterial activity against Salmonella typhimurium. The format is functional, Salmonella enterica subsp. enterica serovar Typhimurium. As to conditions: Salmonella enterica.
The species named for another data set is Rattus norvegicus. Description: Antioxidant activity in albino rat assessed as inhibition of catalase induced H2O2 production. The format is functional.
A short description of data set [17]: Antioxidant activity assessed as H2O2 scavenging activity. The format is functional. As to conditions: dose or concentration not given here.
Data set [18] relates to Trichophyton mentagrophytes. Description: Antimicrobial activity against Trichophyton mentagrophytes assessed as reduction in microbial growth at 1 to 10 ppm relative to control. The format is functional.
For data set [19], the system named is Staphylococcus aureus. Description: Antimicrobial activity against Staphylococcus aureus assessed as reduction in bacterial growth at 500 to 1000 ppm relative to control. It counts as functional.
In a further data set the test system is Bacillus subtilis. Description: Antimicrobial activity against Bacillus subtilis assessed as reduction in microbial growth at 1 to 10 ppm relative to control. The format is functional.
Data set [20] concerns Candida albicans. Description: Antimicrobial activity against Candida albicans assessed as reduction in […] growth at 500 to 1000 ppm relative to control. The format is functional.
In data set [21] the test system is Aspergillus terreus. Description: Antimicrobial activity against Aspergillus terreus assessed as reduction in microbial growth at 1 to 10 ppm relative to control. The format is functional.
The test system of data set [22] is Mycobacterium tuberculosis. Description: Antitubercular activity against Mycobacterium tuberculosis H37Rv. The format is functional.
Data set [23] deals with Mus musculus. Description: Anti-inflammatory activity in mouse IL-1-induced paw inflammation model assessed as inhibition of neutrophil infiltration at 10 mg/kg, po. As to conditions: Mus musculus, po. The format is functional.
Data set [24] is described as follows: Oral bioavailability in rat at 3 mg/kg. As to conditions: in vivo. It counts as ADME, organism-based.

≈ marks a conversion by molar mass, not a printed value. Bounds are passed on as bounds.

Vascular cell adhesion protein 1, sequence (P19320 whole entry): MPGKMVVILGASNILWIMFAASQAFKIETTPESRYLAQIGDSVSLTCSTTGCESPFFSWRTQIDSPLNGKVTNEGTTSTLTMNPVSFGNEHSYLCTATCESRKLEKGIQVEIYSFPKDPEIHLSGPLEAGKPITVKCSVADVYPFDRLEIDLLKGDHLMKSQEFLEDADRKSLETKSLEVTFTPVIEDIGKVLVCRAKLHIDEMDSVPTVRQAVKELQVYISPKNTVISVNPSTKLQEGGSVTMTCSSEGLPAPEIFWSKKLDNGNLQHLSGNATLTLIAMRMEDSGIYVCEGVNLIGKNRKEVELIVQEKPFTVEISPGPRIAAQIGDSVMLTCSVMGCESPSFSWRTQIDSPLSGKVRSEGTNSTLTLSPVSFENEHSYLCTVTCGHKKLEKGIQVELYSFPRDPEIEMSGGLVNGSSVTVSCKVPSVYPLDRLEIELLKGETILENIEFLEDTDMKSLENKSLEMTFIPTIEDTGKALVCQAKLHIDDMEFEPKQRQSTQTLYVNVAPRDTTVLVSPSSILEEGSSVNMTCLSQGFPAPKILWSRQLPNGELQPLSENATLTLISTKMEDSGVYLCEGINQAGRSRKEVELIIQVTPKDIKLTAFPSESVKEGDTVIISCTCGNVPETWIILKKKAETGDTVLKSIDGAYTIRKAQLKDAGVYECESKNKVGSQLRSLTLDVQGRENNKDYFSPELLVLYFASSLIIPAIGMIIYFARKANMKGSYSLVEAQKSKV
Intercellular adhesion molecule 1, sequence (P05362 whole entry): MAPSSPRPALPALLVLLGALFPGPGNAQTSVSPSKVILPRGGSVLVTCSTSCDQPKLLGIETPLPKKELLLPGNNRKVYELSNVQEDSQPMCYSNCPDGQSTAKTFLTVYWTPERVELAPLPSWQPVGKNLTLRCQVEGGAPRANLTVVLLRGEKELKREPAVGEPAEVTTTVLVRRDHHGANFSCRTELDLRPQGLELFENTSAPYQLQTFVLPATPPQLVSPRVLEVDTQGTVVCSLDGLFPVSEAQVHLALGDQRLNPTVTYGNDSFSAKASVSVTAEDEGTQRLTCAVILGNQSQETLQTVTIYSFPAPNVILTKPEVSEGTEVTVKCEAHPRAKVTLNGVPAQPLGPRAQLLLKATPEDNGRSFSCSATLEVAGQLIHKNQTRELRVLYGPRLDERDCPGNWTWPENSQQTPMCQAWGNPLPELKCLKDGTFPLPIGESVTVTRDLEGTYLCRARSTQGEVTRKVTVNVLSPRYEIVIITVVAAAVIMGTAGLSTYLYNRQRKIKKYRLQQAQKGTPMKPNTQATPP

As a reminder, the MIC is the least concentration at which growth counts as inhibited. A higher MIC goes with a need for much substance. In turn, `O=C(O)c1cn(C2CC2)c2c3c(c(F)cc2c1=O)Sc1cc(Cl)ccc1N3` returned a minimum inhibitory concentration (MIC) against Staphylococcus aureus [1] not below 100 µg/mL.

A word on the inhibition: it is the percentage by which the read-out fell short of the control. In the case of `COc1cccc2c1Nc1c(c3nc4ccccc4c(=O)n3c3c(OC)cccc13)S2`, the Activity in the data set listed under Mus musculus [2] was 4.5 to 4.6 nM; in the data set listed under Mus musculus [3], 6.8 nM. Further, the inhibition in data set [4] was in the range of 45.6 to 47.3%.

With `COc1ccc2c(c1)c1c(c3nc4ccccc4c(=O)n32)Sc2cccc(OC)c2N1`, the values for the Activity in the data set listed under Mus musculus [2] and in the data set listed under Mus musculus [3] were 4.5 to 4.6 nM and 6.8 nM, respectively. Also, the inhibition in [4] lay within 45.6 to 47.3%.

On to `COc1cccc2c3c(c4nc5ccccc5c(=O)n4c12)Sc1cc(C)ccc1N3`, for which the values for the Activity in the data set listed under Mus musculus [2] and in the data set filed under Mus musculus [3] were 4.5 to 4.6 nM and 6.8 nM, respectively. Besides, in data set [4], the inhibition lay within 45.6 to 47.3%.

Take `Clc1nc2c(nc1Cl)N(CCC1CCCN1)c1ccccc1S2` (configuration not stated): the inhibition at 100 ppm (in data set [5]; with Aureobasidium pullulans; in the data set on Aspergillus terreus [6]; in the data set on Candida albicans [7]; with Staphylococcus aureus [8]) was 100% in each case.

For the compound `Oc1ncnc2c1N=c1c(c3c(c4ccccc14)=Nc1ccccc1S3)O2`, the figures for the MIC against Bacillus cereus, with Aspergillus niger and with Escherichia coli were 66.1 µg/mL (≈ 178 µM), 79.4 µg/mL (≈ 214 µM) and 87.1 to 97.1 µg/mL (≈ 235 to 262 µM), respectively.

Broadly, the IC50 is the concentration at which inhibition is half-maximal. With `c1cnc2c(c1)Nc1ncccc1S2`, the IC50 in the data set with C32 is 7.5 µg/mL (≈ 37.3 µM); with MCF7 [9], 4.8 µg/mL (≈ 23.9 µM); in the data set on HFF-1 it was not below 50 µg/mL.

In the case of `CCOCn1c(=O)[nH]c2c(c1=O)Nc1ccc(C)cc1S2`, half-maximal inhibition in data set [10] (IC50) was put at 4580 nM.

As a reminder, the inhibition in vivo is the share of the control response that was lost under treatment. Turning to `CN(C)S(=O)(=O)NC1CCN(Cc2ccc3c(c2)Nc2nccnc2S3)CC1`, the IC50 with HUVEC [11] was 360 nM; in data set [12] it was 4500 nM; in data set [13], 270 to 1400 nM; in the data set with HUVEC [15] it was 550 nM. For the same compound, the inhibition in vivo at 10 mg/kg in the data set on Mus musculus [14] was in the range of 83.4 to 89.7%.

In the case of `Clc1ccc(N2c3nc4ccccc4cc3Sc3cc4ccccc4nc32)cc1`, the inhibition of growth at 10 µM is 57 to 73% in the data set on UO-31 and 63% in the data set with MCF7 [16].

Consider `CCN(CC)CCN1c2cccnc2Sc2cccnc21`, for which the IC50 is 6.6 µg/mL (≈ 22 µM) in the data set on C32 and not below 50 µg/mL in the data set with HFF-1.

Consider `O=C(O)c1cn(C2CC2)c2c3c(c(F)cc2c1=O)Sc1ccccc1N3`, for which the MIC was 3 µg/mL (≈ 8.14 µM) with Bacillus cereus, 6 µg/mL (≈ 16.3 µM) in the data set with Salmonella typhimurium and 0.75 µg/mL (≈ 2.04 µM) against Escherichia coli.

Compound `CCOCn1c(=O)[nH]c2c(c1=O)Nc1ccc(Cl)cc1S2` gave an IC50 in [10] of 4300 nM.

Consider `Clc1nc2c(nc1Cl)N(CCCN1CCCC1)c1ccccc1S2`, for which the inhibition at 100 ppm (in data set [5]; in the data set with Aureobasidium pullulans; with Aspergillus terreus [6]; in the data set on Candida albicans [7]; with Staphylococcus aureus [8]) was 100% in each case.

As for `O=C1C(Cl)=C2Sc3cccnc3NC2c2ccccc21` (configuration not stated), the “inhibition (INH)” value in the data set filed under Rattus norvegicus is given as 77.9%. For the same compound, in data set [17], the inhibition is less than 100%.

For the compound `[O-][S+]1c2ccccc2Nc2nc(Cl)c(Cl)nc21` (configuration not stated), the “inhibition (INH)” value (in data set [18]; in the data set with Staphylococcus aureus [19]; in the data set on Bacillus subtilis; in the data set with Candida albicans [20]; in the data set on Aspergillus terreus [21]) was 100% throughout.

`O=c1[nH]c2ccc(Cl)cc2c2c1Sc1cc(Cl)ccc1N2` returned an MIC in data set [22] of more than 6.25 µg/mL.

Consider `CN(C)CCCN1c2ccccc2Sc2nc(Cl)c(Cl)nc21`, for which the inhibition at 100 ppm (in data set [5]; in the data set with Aureobasidium pullulans; in the data set on Aspergillus terreus [6]; in the data set on Candida albicans [7]; in the data set with Staphylococcus aureus [8]) was 100% each time.

As usually defined, the bioavailability is the share of a dose that reaches the circulation, judged against a reference dose that is usually intravenous. As for `O=C(O)CC1C2CCCC1CN(Cc1ccc3c(c1)Nc1nccnc1S3)C2` (stereo in doubt; 64c), the inhibition in vivo at 10 mg/kg in the data set with Mus musculus [23] came out at 91.5%. In addition, the IC50 in data set [12] was determined as 2500 nM; in [13], 3000 nM. The same compound returned a bioavailability in data set [24] of 98.5%.
